# In PubChem BioAssay (NCI):
# “And” between values parts separate entries of the source, which are not always exact repeats. Equal entries are not always repeated.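 Interpolation was linear, between the two tested concentrations surrounding the appropriate level; five concentrations were tested over 48 hours in 96-well plates. Abbreviation: GI50, concentration required for 50% inhibition of growth. Definition used: TGI = concentration required for complete inhibition of growth.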
# How the values were obtained:
# Assay in all cases: NCI anticancer screen, dose series, 48 h
# [1] = test system: ACHN renal
# [2] = test system: HL-60(TB) leukemia
# [3] = test system: NCI-H522 lung
# [4] = test system: U251 CNS
# [5] = test system: SW-620 colon
# [6] = test system: SR leukemia
# [7] = test system: SN12C renal
# [8] = test system: DU-145 prostate
# [9] = test system: NCI-H460 lung
# [10] = test system: HOP-62 NSCLC
# [11] = test system: TK-10 renal
# [12] = test system: UACC-62 melanoma
# [13] = test system: UO-31 renal
# [14] = test system: A498 renal
# [15] = test system: CCRF-CEM leukemia
# [16] = test system: BT-549 breast
# [17] = test system: LOX IMVI melanoma
# [18] = test system: A549 NSCLC
# [19] = test system: SK-MEL-28 melanoma
# [20] = test system: 786-0 renal
# [21] = test system: PC-3 prostate
# [22] = test system: MOLT-4 leukemia
# [23] = test system: MDA-MB-231 breast
# [24] = test system: T-47D breast
# [25] = test system: SF-295 CNS
# [26] = test system: CAKI-1 renal
# [27] = test system: OVCAR-5 ovarian
# [28] = test system: SF-539 CNS
# [29] = test system: HT29 colon
# [30] = test system: SNB-75 CNS
# [31] = test system: RXF 393 renal
# [32] = test system: NCI-H23 lung
# [33] = test system: MALME-3M melanoma
# [34] = test system: OVCAR-8 ovarian
# [35] = test system: K-562 leukemia
# [36] = test system: OVCAR-3 ovarian
# [37] = test system: SK-MEL-5 melanoma
# [38] = test system: COLO 205 colon
# [39] = test system: IGROV1 ovarian
# [40] = test system: SK-OV-3 ovarian
# [41] = test system: SF-268 CNS
# [42] = test system: OVCAR-4 ovarian
# [43] = test system: M14 melanoma
# [44] = test system: HOP-92 NSCLC
# [45] = test system: HCC-2998 colon
# [46] = test system: RPMI-8226 leukemia
# [47] = test system: NCI/ADR-RES ovarian
# [48] = test system: HCT-116 colon
# [49] = test system: NCI-H226 lung
# [50] = test system: MCF7 breast
# [51] = test system: HCT-15 colon
# [52] = test system: KM12 colon
# [53] = test system: UACC-257 melanoma
# [54] = test system: HS 578T breast
# [55] = test system: SK-MEL-2 melanoma
# [56] = test system: SNB-19 CNS
# [57] = test system: MDA-MB-435
# [58] = test system: EKVX NSCLC
smiles,measurement,setting,value
CC1(O)CC(c2nc(-c3ccc4ccc(-c5ccccc5)nc4c3)c3c(N)nccn23)C1 (centres undefined),GI50,[1],7.44 µM and 7.79 µM
same,TGI,[1],> 100 µM
same,TGI,[2],25.8 µM and > 10 µM
same,GI50,[3],12 µM and > 10 µM
same,TGI,[3],35.5 µM and > 10 µM
same,GI50,[4],13.4 µM and > 10 µM
same,TGI,[4],36.3 µM and > 10 µM
same,GI50,[5],4.87 µM and 2.36 µM
same,TGI,[5],34.8 µM and > 10 µM
same,GI50,[6],15.7 µM and 7.92 µM
same,TGI,[6],> 75.2 µM
same,GI50,[7],9.64 µM and > 10 µM
same,TGI,[7],> 80.9 µM
same,GI50,[8],7.4 µM and 8.12 µM
same,TGI,[8],> 86.8 µM
same,GI50,[9],2.7 µM and 1.5 µM
same,TGI,[9],24.8 µM and > 10 µM
same,GI50,[10],5.75 µM and 7.35 µM
same,TGI,[10],50.6 µM and > 10 µM
same,GI50,[11],12 µM and > 10 µM
same,TGI,[11],56.3 µM and > 10 µM
same,GI50,[12],10.8 µM and > 10 µM
same,TGI,[12],32.2 µM and > 10 µM
same,GI50,[13],3.6 µM and 1.65 µM
same,TGI,[13],> 76.3 µM
same,GI50,[14],3.32 µM and 4.55 µM
same,TGI,[14],12.8 µM and > 10 µM
same,GI50,[15],9.89 µM and > 10 µM
same,TGI,[15],> 100 µM
same,GI50,[16],6.92 µM and 5.87 µM
same,TGI,[16],24.3 µM and > 10 µM
same,GI50,[17],7.41 µM and 6.46 µM
same,TGI,[17],45.4 µM and > 10 µM
same,GI50,[18],10.5 µM and > 10 µM
same,TGI,[18],> 100 µM
same,GI50,[19],12 µM and > 10 µM
same,TGI,[19],44.3 µM and > 10 µM
same,GI50,[20],15 µM and > 10 µM
same,TGI,[20],53.7 µM and > 10 µM
same,GI50,[21],12.7 µM and > 10 µM
same,TGI,[21],> 100 µM
same,GI50,[22],7.16 µM and 3.72 µM
same,TGI,[22],> 80.1 µM
same,GI50,[23],6.97 µM and 5.12 µM
same,TGI,[23],38.1 µM and > 10 µM
same,GI50,[24],3.94 µM and 2.82 µM
same,TGI,[24],24.1 µM and > 10 µM
same,GI50,[25],12.5 µM and > 10 µM
same,TGI,[25],48.1 µM and > 10 µM
same,GI50,[26],4.58 µM and 2.16 µM
same,TGI,[26],> 100 µM
same,GI50,[27],12.1 µM and > 10 µM
same,TGI,[27],44.7 µM and > 10 µM
same,GI50,[28],11.9 µM and > 10 µM
same,TGI,[28],28.8 µM and > 10 µM
same,GI50,[29],0.105 µM and 0.0588 µM
same,TGI,[29],21.5 µM and > 10 µM
same,GI50,[30],4.62 µM and 5.57 µM
same,TGI,[30],43.2 µM and > 10 µM
same,GI50,[31],3.71 µM and 4.96 µM
same,TGI,[31],13.7 µM and > 10 µM
same,GI50,[32],8.83 µM and 5.03 µM
same,TGI,[32],> 80.8 µM
same,GI50,[33],7.95 µM and > 10 µM
same,TGI,[33],38.2 µM and > 10 µM
same,GI50,[34],9.34 µM and > 10 µM
same,TGI,[34],80 µM and > 10 µM
same,TGI,[35],> 100 µM
same,GI50,[36],15 µM and > 10 µM
same,TGI,[36],34.7 µM and > 10 µM
same,GI50,[37],3.38 µM
same,TGI,[37],14.9 µM
same,GI50,[38],0.346 µM and 0.0989 µM
same,TGI,[38],14.2 µM and 4.07 µM
same,GI50,[39],19.1 µM and > 10 µM
same,TGI,[39],> 100 µM
same,GI50,[40],10.4 µM and 9.84 µM
same,TGI,[40],> 100 µM
same,GI50,[41],12.9 µM and > 10 µM
same,TGI,[41],55.3 µM and > 10 µM
same,GI50,[42],7.5 µM and > 10 µM
same,TGI,[42],> 95 µM
same,GI50,[43],11.5 µM and > 10 µM
same,TGI,[43],31.1 µM and > 10 µM
same,GI50,[44],0.0272 µM and 0.0625 µM
same,TGI,[44],1.15 µM and 1.43 µM
same,GI50,[45],6.71 µM and > 10 µM
same,TGI,[45],27.3 µM and > 10 µM
same,GI50,[46],6.55 µM and 3.98 µM
same,TGI,[46],31.9 µM and > 10 µM
same,GI50,[47],10.6 µM and > 10 µM
same,TGI,[47],96.9 µM and > 10 µM
same,GI50,[48],7.32 µM and 5.29 µM
same,TGI,[48],26.7 µM and > 10 µM
same,GI50,[49],3.72 µM and 3.12 µM
same,TGI,[49],49.7 µM and > 10 µM
same,GI50,[50],0.122 µM and 0.332 µM
same,TGI,[50],> 43.3 µM
same,GI50,[51],4.52 µM and 3.68 µM
same,TGI,[51],> 79.6 µM
same,GI50,[52],4.31 µM and 3.88 µM
same,TGI,[52],19.4 µM and > 10 µM
same,GI50,[53],5.68 µM and > 10 µM
same,TGI,[53],48.2 µM and > 10 µM
same,GI50,[54],13.8 µM and 4.28 µM
same,TGI,[54],51.9 µM and > 10 µM
same,GI50,[55],10.1 µM and 6.63 µM
same,TGI,[55],60.6 µM and > 10 µM
same,GI50,[56],19.8 µM and > 10 µM
same,TGI,[56],> 100 µM
same,GI50,[57],4.53 µM and 3.69 µM
same,TGI,[57],27.3 µM and > 10 µM
same,GI50,[58],11.7 µM and > 10 µM
same,TGI,[58],> 100 µM
